{"source": "patent US9956187B2", "about": "(priority 2014, dated 2018)", "test_in_all_cases": "Secondary radioligand binding assay (affinity)", "key": {"[1]": {"molecular_target": "T1, delta opioid receptor (Homo sapiens, UniProt P41143)", "T1 construct": "expressed in transfected cells", "T1 sequence (P41143 whole entry)": "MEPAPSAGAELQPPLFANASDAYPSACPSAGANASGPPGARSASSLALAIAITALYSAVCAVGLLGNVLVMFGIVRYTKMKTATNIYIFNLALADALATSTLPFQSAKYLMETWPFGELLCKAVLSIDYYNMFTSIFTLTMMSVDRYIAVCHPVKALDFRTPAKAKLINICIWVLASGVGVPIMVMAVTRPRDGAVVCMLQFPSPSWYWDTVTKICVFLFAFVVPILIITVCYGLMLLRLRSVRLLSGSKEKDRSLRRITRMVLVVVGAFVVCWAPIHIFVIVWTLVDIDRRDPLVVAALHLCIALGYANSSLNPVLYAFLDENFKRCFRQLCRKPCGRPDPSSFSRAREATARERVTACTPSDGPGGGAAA", "conditions": "mean±SE; read-out: Ki DOR", "protocol": "(§1) The secondary binding assay was performed only when the inhibition in the primary screen was over 50%. A secondary binding assay was utilized to determine the binding affinity for the identified receptor.\n(§2) 50 μL of a crude membrane fraction of cells expressing the respective receptors were applied to each well. Reaction incubation, harvesting and radioactivity measurement from the primary assay were repeated. Affinity is expressed as pKi (−log Ki)."}, "[2]": {"molecular_target": "T2, norepinephrine transporter (NET) (Homo sapiens, UniProt P23975)", "T2 construct": "expressed in transfected cells", "T2 sequence (P23975 whole entry)": "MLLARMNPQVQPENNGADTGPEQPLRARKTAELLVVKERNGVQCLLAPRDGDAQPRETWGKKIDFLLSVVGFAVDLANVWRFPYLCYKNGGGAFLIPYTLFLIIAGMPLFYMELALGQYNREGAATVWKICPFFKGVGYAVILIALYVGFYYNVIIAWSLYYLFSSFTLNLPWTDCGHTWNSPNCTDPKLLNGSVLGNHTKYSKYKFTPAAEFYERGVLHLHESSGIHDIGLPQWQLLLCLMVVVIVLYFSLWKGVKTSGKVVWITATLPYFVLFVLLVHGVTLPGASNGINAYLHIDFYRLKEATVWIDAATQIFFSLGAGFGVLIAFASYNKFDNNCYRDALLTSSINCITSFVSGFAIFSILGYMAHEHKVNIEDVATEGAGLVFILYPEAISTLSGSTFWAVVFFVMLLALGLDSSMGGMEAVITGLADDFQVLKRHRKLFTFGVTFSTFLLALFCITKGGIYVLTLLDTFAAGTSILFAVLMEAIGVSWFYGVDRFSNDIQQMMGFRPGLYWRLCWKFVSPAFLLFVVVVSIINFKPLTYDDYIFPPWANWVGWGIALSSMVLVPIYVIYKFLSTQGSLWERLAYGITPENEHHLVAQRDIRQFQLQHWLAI", "conditions": "mean±SE", "protocol": "as §1, §2"}, "[3]": {"molecular_target": "T3, serotonin transporter (SERT) (Homo sapiens, UniProt P31645)", "T3 construct": "expressed in transfected cells", "T3 sequence (P31645 whole entry)": "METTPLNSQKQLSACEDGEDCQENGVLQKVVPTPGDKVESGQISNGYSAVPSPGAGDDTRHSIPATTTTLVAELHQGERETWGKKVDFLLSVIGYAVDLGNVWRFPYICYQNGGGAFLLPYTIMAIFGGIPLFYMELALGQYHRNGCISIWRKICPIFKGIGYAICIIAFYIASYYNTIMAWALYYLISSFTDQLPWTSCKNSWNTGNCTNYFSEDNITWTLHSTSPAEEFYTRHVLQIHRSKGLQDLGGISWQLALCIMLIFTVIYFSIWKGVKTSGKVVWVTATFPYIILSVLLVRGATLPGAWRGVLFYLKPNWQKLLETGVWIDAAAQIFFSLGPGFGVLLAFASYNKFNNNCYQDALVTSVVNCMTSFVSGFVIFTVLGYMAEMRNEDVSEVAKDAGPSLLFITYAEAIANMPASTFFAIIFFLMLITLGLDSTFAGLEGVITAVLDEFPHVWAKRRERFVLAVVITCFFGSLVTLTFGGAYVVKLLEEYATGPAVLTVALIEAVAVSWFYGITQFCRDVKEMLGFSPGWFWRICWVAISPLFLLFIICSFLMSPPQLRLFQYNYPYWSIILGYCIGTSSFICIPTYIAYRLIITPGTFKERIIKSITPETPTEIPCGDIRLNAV", "protocol": "as §1, §2"}}, "note": "Structures can show the parent of a compound that is named as a salt.", "data": [{"smiles": "C[C@@]12CCCCC[C@@H](Cc3ccc(O)cc31)[C@@H]2N", "note": "[Dezocine, (−)-13β-amino-5,6,7,8,9,10,11,12-octahydro-5α-methyl-5,11-methanobenxocyclodecen-31-ol, hydrobromide]", "values": [{"measurement": "Ki", "setting": "[1]", "value": "527 ± 70", "unit": "nM"}, {"measurement": "pKi NET", "setting": "[2]", "value": "6.00±0.10"}, {"measurement": "Ki", "setting": "[3]; FIG. 12", "value": 111, "unit": "nM"}, {"measurement": "pKi SERT", "setting": "[3]; mean±SE", "value": "6.96±0.08"}]}]}
